Test systems include 786-0 renal; A549 NSCLC; CCRF-CEM leukemia; DLD-1 colon; KM12 colon; NCI-H460 lung; RXF 393 renal; HCC-2998 colon; OVCAR-4 ovarian.
Holding throughout (test): inhibition of tumour cell growth, NCI panel, 48 h

Structures are written as SMILES. Values joined by “and” are separate entries in the source; they are usually repeats but may differ in a detail not shown here. Identical values can stand only once.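 All cell lines were grown in 96-well plates and treated with compound for 48 hours. GI50 is the concentration that inhibits growth by half. Definition used: TGI = concentration required for complete inhibition of growth.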 Bounds are passed on as bounds.

Our source for the TGI and GI50 values is PubChem BioAssay (NCI).

On to `O=C(Nc1cc(Cl)ccc1Cl)c1cc2ccccc2oc1=O`, for which the TGI with 786-0 renal, in the experiment with A549 NSCLC, in the experiment with CCRF-CEM leukemia, in the experiment on DLD-1 colon, in the experiment on KM12 colon and in the experiment on NCI-H460 lung was greater than 100 µM throughout. For the same compound, in the experiment with RXF 393 renal, the TGI was greater than 100 µM.
With `COC(=O)N1C=Cc2c(c(C)c3c([nH]c4ccccc43)c2C)C1C` (stereo not drawn), the TGI in the experiment with 786-0 renal is 26.5 µM; in the experiment on A549 NSCLC it was 42.2 µM; with CCRF-CEM leukemia, 54.4 µM; in the experiment on DLD-1 colon, 32.7 µM; in the experiment on HCC-2998 colon, 32.1 µM; in the experiment on NCI-H460 lung, 70.3 µM. This compound came in with a TGI with OVCAR-4 ovarian of 26.1 µM.
In the case of `Cc1nc2ccccc2c(=O)n1/N=C(\N=Nc1ccc(Cl)cc1)c1ccc(N(C)C)cc1`, the TGI with 786-0 renal, with A549 NSCLC, in the experiment with CCRF-CEM leukemia, with DLD-1 colon, in the experiment with NCI-H460 lung and in the experiment on RXF 393 renal was greater than 100 µM throughout.
For the compound `CN(C)c1ccc(-c2cc(-c3cccc(NS(C)(=O)=O)c3)nc(N)c2C#N)cc1`, the GI50 was 0.0491 µM in the experiment with 786-0 renal; 0.0537 µM with A549 NSCLC; 0.0379 µM in the experiment with CCRF-CEM leukemia; 0.0925 µM in the experiment with HCC-2998 colon; 0.0381 µM in the experiment on KM12 colon; 0.0378 µM in the experiment on NCI-H460 lung. Further, the results for the GI50 in the experiment with OVCAR-4 ovarian and in the experiment on RXF 393 renal were 0.522 µM and 0.0183 µM, respectively. Besides, the TGI is 13.5 µM in the experiment on 786-0 renal; greater than 56.2 µM in the experiment with A549 NSCLC; greater than 100 µM in the experiment with CCRF-CEM leukemia; 0.866 µM with HCC-2998 colon; 1.75 µM in the experiment with KM12 colon; 18.6 µM in the experiment with NCI-H460 lung. The values for the TGI in the experiment with OVCAR-4 ovarian and in the experiment on RXF 393 renal were 53.8 µM and 0.0565 µM, respectively.
As for `Cc1ccccc1C1N=C2Oc3ccccc3C=C2C(=O)N1` (stereo not drawn), the GI50 in the experiment with 786-0 renal was 14.1 µM; in the experiment on A549 NSCLC it was 3.55 µM; in the experiment with CCRF-CEM leukemia, 4.63 µM; with HCC-2998 colon, 4.69 µM; with KM12 colon, 15 µM; in the experiment on NCI-H460 lung it was 4.34 µM. For the same compound, the values for the GI50 in the experiment on OVCAR-4 ovarian and with RXF 393 renal were 11.8 µM and 0.488 µM, respectively. The TGI was greater than 100 µM with 786-0 renal; greater than 100 µM in the experiment on A549 NSCLC; greater than 100 µM in the experiment with CCRF-CEM leukemia; greater than 58.7 µM in the experiment on HCC-2998 colon; greater than 100 µM with KM12 colon; greater than 100 µM with NCI-H460 lung. The compound also yielded a TGI with OVCAR-4 ovarian greater than 100 µM.
For `Nc1ncnc2c1ncn2C1SC(CO)C(O)C1O` (stereo not drawn), the GI50 was 16.5 µM in the experiment on 786-0 renal; 26.6 µM in the experiment with A549 NSCLC; greater than 100 µM in the experiment on CCRF-CEM leukemia; 11.9 µM in the experiment on HCC-2998 colon; 23 µM with KM12 colon; 7.88 µM in the experiment on NCI-H460 lung. For the same compound, the GI50 was 34.6 µM in the experiment with OVCAR-4 ovarian and 80.6 µM in the experiment with RXF 393 renal. For the same compound, the TGI with 786-0 renal was 37.3 µM; in the experiment with A549 NSCLC, 73.4 µM; with CCRF-CEM leukemia it was greater than 100 µM; in the experiment on HCC-2998 colon it was 34.5 µM; in the experiment with KM12 colon it was greater than 100 µM; in the experiment on NCI-H460 lung it was 37.9 µM. Further, the TGI with OVCAR-4 ovarian and in the experiment on RXF 393 renal was greater than 100 µM each time.
`N#CSc1c[nH]c2cccc(/C=C/C(=O)/C=C(O)/C=C/c3cccc4[nH]cc(SC#N)c34)c12`: the GI50 in the experiment with 786-0 renal was 0.684 µM; in the experiment with A549 NSCLC it was 0.353 µM; in the experiment with CCRF-CEM leukemia, 0.159 µM; in the experiment on HCC-2998 colon it was 1.2 µM; in the experiment on KM12 colon it was 0.351 µM; in the experiment with NCI-H460 lung, 0.228 µM. In addition, the GI50 in the experiment with OVCAR-4 ovarian is 0.216 µM; in the experiment on RXF 393 renal it was 0.326 µM. Moreover, the TGI with 786-0 renal was 2.14 µM; in the experiment on A549 NSCLC, 2.78 µM; with CCRF-CEM leukemia, 6.47 µM; in the experiment on HCC-2998 colon it was 4.56 µM; in the experiment with KM12 colon, 0.998 µM; in the experiment on NCI-H460 lung, 0.899 µM. Also, the TGI with OVCAR-4 ovarian turned out to be 1.72 µM; with RXF 393 renal, 1 µM.
Regarding `COc1cc(-c2nn(-c3cccc(NC(=O)NCCNC(=O)c4ccccc4)c3)cc2-c2ccncc2)ccc1Cl`, the GI50 with 786-0 renal was 1.94 µM; in the experiment on A549 NSCLC, 4.57 µM; in the experiment with CCRF-CEM leukemia, 1.41 µM; with HCC-2998 colon, 5.42 µM; in the experiment on KM12 colon, 2.56 µM; with NCI-H460 lung it was 3.56 µM. For the same compound, the results for the GI50 in the experiment with OVCAR-4 ovarian and with RXF 393 renal were 3.03 µM and 1.94 µM, respectively. Further, the TGI in the experiment on 786-0 renal is 5.37 µM; in the experiment with A549 NSCLC it was greater than 100 µM; in the experiment with CCRF-CEM leukemia, greater than 100 µM; in the experiment with HCC-2998 colon, greater than 100 µM; in the experiment with KM12 colon, 40.2 µM; in the experiment with NCI-H460 lung, greater than 100 µM. The TGI in the experiment with OVCAR-4 ovarian was greater than 100 µM; in the experiment with RXF 393 renal it was 6.42 µM.
As to `CC/C(=C\c1ccc(N(C)C)cc1)c1ccncc1`, the GI50 in the experiment on 786-0 renal is 6.31 µM; in the experiment on A549 NSCLC, 5.5 µM; in the experiment on CCRF-CEM leukemia it was 8.13 µM; in the experiment on HCC-2998 colon, 6.58 µM; in the experiment with KM12 colon it was 3.84 µM; in the experiment on NCI-H460 lung, 3.79 µM. Further, the GI50 is 8.67 µM with OVCAR-4 ovarian and 4.25 µM with RXF 393 renal. Further, the TGI with 786-0 renal is 46.4 µM; in the experiment with A549 NSCLC it was greater than 100 µM; in the experiment with CCRF-CEM leukemia, greater than 100 µM; in the experiment on HCC-2998 colon it was greater than 100 µM; in the experiment with KM12 colon it was greater than 100 µM; in the experiment on NCI-H460 lung, greater than 100 µM. Besides, the results for the TGI in the experiment on OVCAR-4 ovarian and in the experiment with RXF 393 renal were greater than 100 µM and 20.8 µM, respectively.
In the case of `C=CN(C(=O)N1CCN(c2cc3c(cc2F)c(=O)c(C(=O)O)cn3C2CC2)CC1)c1nc(-c2ccc(C)cc2)cs1`, the GI50 in the experiment on 786-0 renal is 0.333 µM; with A549 NSCLC it was 3.17 µM; in the experiment with CCRF-CEM leukemia it was 0.438 µM; in the experiment with HCC-2998 colon, 3.85 µM; with KM12 colon, 3.45 µM; with NCI-H460 lung it was 3.38 µM. Also, the results for the GI50 with OVCAR-4 ovarian and with RXF 393 renal were 3.56 µM and 4 µM, respectively. For the same compound, the TGI in the experiment with 786-0 renal was 10.5 µM; in the experiment on A549 NSCLC, greater than 100 µM; with CCRF-CEM leukemia, greater than 100 µM; in the experiment with HCC-2998 colon, greater than 100 µM; with KM12 colon, greater than 100 µM; in the experiment on NCI-H460 lung, greater than 100 µM. Further, the TGI with OVCAR-4 ovarian and in the experiment with RXF 393 renal was greater than 100 µM each time.
Regarding `Nc1nc(N)c2nc(CNc3ccc(C(=O)NC(CCC(=O)O)C(=O)O)cc3)cnc2n1` (stereo not drawn), the GI50 in the experiment with 786-0 renal was less than 0.01 µM; in the experiment with A549 NSCLC, 0.032 µM and < 0.01 µM; in the experiment on CCRF-CEM leukemia, less than 0.01 µM; with HCC-2998 colon, 0.0329 µM and < 0.01 µM; in the experiment with KM12 colon, less than 0.01 µM; in the experiment on NCI-H460 lung, less than 0.01 µM. The TGI in the experiment on 786-0 renal, with A549 NSCLC, with CCRF-CEM leukemia, with HCC-2998 colon, in the experiment with KM12 colon and with NCI-H460 lung was greater than 100 µM throughout. Moreover, the TGI in the experiment with OVCAR-4 ovarian and in the experiment with RXF 393 renal was greater than 100 µM each time.
Take `N/C(=N\O)c1cn(C2OC(CO)C(O)C2O)c2ncnc(N)c12` (stereo not drawn): the GI50 with 786-0 renal was 0.374 µM; in the experiment on A549 NSCLC it was 0.126 µM; in the experiment with CCRF-CEM leukemia it was 0.303 µM; in the experiment on HCC-2998 colon, 0.212 µM; with KM12 colon, 0.188 µM; in the experiment with NCI-H460 lung, 0.138 µM. For the same compound, the GI50 in the experiment with OVCAR-4 ovarian is 0.177 µM; in the experiment with RXF 393 renal it was 0.169 µM. For the same compound, the TGI in the experiment on 786-0 renal is greater than 100 µM; in the experiment on A549 NSCLC, 20.1 µM; in the experiment with CCRF-CEM leukemia, greater than 38.6 µM; with HCC-2998 colon, 1.43 µM; with NCI-H460 lung, 0.987 µM; in the experiment with OVCAR-4 ovarian, 4.05 µM. The same compound returned a TGI in the experiment on RXF 393 renal of 0.722 µM.
`Nc1nc(-c2ccccn2)c(-c2ccc3ncccc3n2)s1`: the GI50 with 786-0 renal, with A549 NSCLC, in the experiment with CCRF-CEM leukemia, in the experiment on HCC-2998 colon, in the experiment on KM12 colon and in the experiment with NCI-H460 lung was greater than 25 µM throughout. In addition, the GI50 in the experiment with OVCAR-4 ovarian and in the experiment on RXF 393 renal was greater than 25 µM each time. In addition, the TGI in the experiment with 786-0 renal, in the experiment with A549 NSCLC, in the experiment on CCRF-CEM leukemia, with HCC-2998 colon, in the experiment on KM12 colon and in the experiment with NCI-H460 lung was greater than 25 µM in each case. Also, the TGI with OVCAR-4 ovarian and with RXF 393 renal was greater than 25 µM throughout.
As for `COc1cc2nc(NC3CCC3)nc(NC3CCN(C(C)C)CC3)c2cc1OC`, the GI50 in the experiment with 786-0 renal was 1.85 µM; in the experiment on A549 NSCLC, 3.08 µM; in the experiment on CCRF-CEM leukemia it was 2.21 µM; with HCC-2998 colon, 1.7 µM; in the experiment on KM12 colon, 4.01 µM; in the experiment with NCI-H460 lung it was 3.36 µM. The GI50 is 3.25 µM with OVCAR-4 ovarian and 1.38 µM with RXF 393 renal. Moreover, the TGI in the experiment on 786-0 renal was 3.91 µM; in the experiment on A549 NSCLC, 14.5 µM; in the experiment with CCRF-CEM leukemia, 5.11 µM; in the experiment with HCC-2998 colon, 3.46 µM; in the experiment on KM12 colon it was 14.7 µM; in the experiment with NCI-H460 lung, 12.1 µM. For the same compound, the TGI in the experiment on OVCAR-4 ovarian came out at 20.9 µM; in the experiment with RXF 393 renal, 2.85 µM.
Turning to `CC(=O)Nc1ccc(S(=O)(=O)N2C(=O)CCC2C(=O)Nc2ccccc2)cc1` (stereo not drawn), the GI50 was 1.42 µM with 786-0 renal; 0.721 µM with A549 NSCLC; 0.433 µM in the experiment with CCRF-CEM leukemia; 0.645 µM in the experiment with HCC-2998 colon; 0.214 µM with KM12 colon; 0.359 µM with NCI-H460 lung. In addition, the GI50 in the experiment with OVCAR-4 ovarian was 0.698 µM; in the experiment on RXF 393 renal, 3.48 µM. Besides, the TGI in the experiment on 786-0 renal amounted to 13.3 µM; in the experiment with A549 NSCLC, 19.2 µM; in the experiment with CCRF-CEM leukemia, 14.2 µM; in the experiment on HCC-2998 colon, 5.62 µM; in the experiment on KM12 colon, 11.3 µM; with NCI-H460 lung, 15.3 µM. The TGI in the experiment with OVCAR-4 ovarian was found to be 10.8 µM; in the experiment on RXF 393 renal, 13.9 µM.
